How the values were obtained:
[1] = test system: SJSA-1, HCT116 p53wt/wt, SAOS2 and HCT116 p53-/- cells; assay: Cell proliferation inhibition assay (YOPRO), p53 wild-type and p53 mutant cell lines; type: cell-based; conditions: 72 hours, p53 wild-type vs p53 mutant cell lines
Method: Lucern, Switzerland). Briefly, cells are plated in 96-well plates overnight at 37° C. and are treated with increasing concentrations of MDM2i(1) or MDM2i(2) for 72 hours. Cell concentration in each well is then determined using the DNA-interacting fluorescent dye YOPRO according to the manufacturer's instructions and the fluorescent signal is measured using a Gemini-EM standard plate reader (Molecular Devices: Sunnyvale, Calif., USA).

[2] = test system: C3A cells; assay: Western blot of p53 pathway proteins, C3A sensitive cells; type: cell-based; conditions: 4 hours
Method: (§1) That the biomarkers in Table 2/FIG. 3 are reflective of a functional p53 pathway in MDM2i sensitive cells is verified in FIG. 4. […]. Whole cell lysates were prepared using a cell lysis buffer containing 50 mM Tris-HCl pH 7.5, 120 mM NaCl, 1 mM EDTA, 6 mM EGTA pH 8.5, 1% NP-40, 20 mM NaF, 1 mM PMSF and 0.5 mM Na-Vanadat, proteins were separated on NuPAGE 4-12% Bis-Tris Gel (Invitrogen # NP0322BOX, Lucerne; Switzerland), transferred onto Nitrocellulose Protran® BA 85 membranes (Whatman #10 401 261: Piscataway, N.J., USA) at 1.5 mA/cm^2 membrane for 2 h using a semi-dry blotting system, and immunoblotted with either an anti-phospho-p53 (Ser^15) (1/1000; Cell Signaling Technology #9284: Beverly, Mass., USA) rabbit polyclonal antibody, or an anti-p53 (Ab-6) (Pantropic, clone DO-1,) (1/1000; Calbiochem # OP43 San Diego, Calif., USA), an anti-MDM2 (Ab-1, clone IF2) (1/1000; Calbiochem # OP46), an anti-p21^WAF1(Ab-1, clone EA10) (1/500; Calbiochem # OP64: San Diego, Calif., USA) or an anti-α-Tubulin (Sigma # T5168: St. Louis, Mo., USA) mouse monoclonal antibodies, as indicated. […].

[3] = test system: COLO 792 cells; assay: Western blot of p53 pathway proteins, COLO 792 insensitive cells; type: cell-based; conditions: increasing concentrations, 4 hours
Method: as §1

[4] = test system: SJSA-1 osteosarcoma cells; assay: SJSA-1 xenograft tumor growth in nude mice; type: in vivo; conditions: 10-day treatment
Method: To further validate the predictive biomarkers disclosed in FIG. 3, in vivo human xenograft models either from human primary samples or from cell lines were directly injected and grown in tumors subcutaneously in mice and then assessed for MDM2i sensitivity. All the animals were allowed to adapt for 4 days and housed in a pathogen-controlled environment (5 mice/Type III cage) with access to food and water ad libitum. Animals were identified with transponders. Studies were performed according to procedures covered by permit number 1975 issued by the Kantonales Veterinäramt Basel-Stadt and strictly adhered to the Eidgenössisches Tierschutzgesetz and the Eidgenössische Tierschutzverordnung. […] Tumor volumes (TVol), determined from caliper measurements (using the formula I×w×h×τ/6) were measured three times per week. Tumor response was quantified by the change in tumor volume (endpoint minus starting value in mm^3) as the T/C, i.e.
[formula] In the case of a tumor regression, the tumor response was quantified by the percentage of regression of the starting TVol, i.e.
[formula] The body-weight (BW) of the mice was measured three times per week allowing calculation at any particular time-point relative to the day of initiation of treatment (day 0) of both the percentage change in BW (Δ % BW). […]

[5] = test system: p21(CDKN1A); assay: p21(CDKN1A) mRNA levels in SJSA-1 tumors (qRT-PCR); type: in vivo, mice; conditions: SJSA-1 xenograft, 25-100 mg/kg q24h
Method: Briefly, total RNA was purified from cell pellets using the QIAshredder® (79654, Qiagen: Valencia Calif., USA) and RNeasy Mini Kit® (74106, Qiagen: Valencia Calif., USA) according to the manufacturer's instructions, with the exception that no DNA digestion was performed. Total RNA was eluted with 50 μL of RNase-free water. Total RNA was quantitated using the spectrophotometer ND-1000 Nanodrop® (Wilmington Del., USA). The qRT-PCR (Quantitative Reverse Transcriptase Polymerase Chain Reaction) was set up in triplicate per sample using the One-Step RT qPCR Master Mix Plus (RT-QPRT-032×, Eurogentec: Seraing, Belgium), with either control primers and primers for human p21(CDKN1A) (Hs00355782_m1, Applied Biosystems: Carlsbad Calif., USA) or mouse p21(CDKN1A) (Mm00432448_m1, Applied Biosystems: Carlsbad Calif., USA), namely TaqMan Gene Expression kit assays (20× probe dye FAM™ (or VIC)-TAMRA (or MGB); Applied Biosystems: Carlsbad Calif., USA). […] The number of cycles (CT) was determined, 2^−CT values were calculated, and the value normalized by dividing with the 2^−CT value obtained from the Gapdh control. Fold increase over control (i.e. DMSO- or vehicle-treated animals) was calculated and plotted in the bar graph.

[6] = test system: p21(CDKN1A); assay: p21(CDKN1A) protein levels in SJSA-1 tumors (immunohistochemistry); type: in vivo, mice; conditions: SJSA-1 xenograft
Method: SJSA-1 xenograft tumors were collected and a 3-4 mm slice out of the middle of the tumor was removed, transferred into pre-labelled histo-cassettes and immersion-fixed in neutral buffered formalin (NBF) 10% (v/v) (pH 6.8-7.2) (J. T. Baker, Winter Garden, Fla., USA), pre-cooled at 4° C. Tumors were then fixed at room temperature for 24 hours, followed by processing in the TPC 15Duo (Tissue Processing Center, Medite) for paraffinization. Subsequently, the tumor slices were embedded in paraffin and from each paraffin block several 3 μm thick sections were cut on a rotary microtome (Mikrom International AG, Switzerland), spread in a 48° C. water-bath, mounted on glass slides (SuperFrost Plus, Thermo Scientific: Waltham Mass., USA), and dried in an oven either at 37° C. overnight or at 60° C. for 30 min. Dry tissue section were processed for immunohistochemistry (IHC) staining. p21(CDKN1A) immunohistochemistry has been performed using the mouse monoclonal antibody clone SX118 from Dako (Cat. No. M7202 Dako: Carpenteria Calif., USA) at a dilution of 1:50. Immunohistochemistry has been performed on a Ventana Discovery XT automated immunostainer using the N-Histofine Mousestain Kit (Nichirei Bioscience Inc, Japan) in combination with the DABMap Kit chromogen system, omitting the SA-HRP solution (Ventana/Roche Diagnostics GmbH, Mannheim, Germany). […]

[7] = test system: SJSA-1 osteosarcoma line; conditions: SJSA-1, amplified MDM2 gene; cited from earlier work
[8] = test system: human and mouse normal fibroblasts; conditions: cited from earlier work

Row | SMILES | tumor cell proliferation [1] | phospho-p53 ([2]; C3A cells, increasing concentrations) | expression of p53 target genes p21(CDKN1A) and MDM2 ([2]; C3A sensitive cells) | phospho-p53 [3] | T/C (tumor growth inhibition) ([4]; 25 mg/kg q24h) | T/C (tumor growth inhibition) ([4]; 50 mg/kg q24h) | p21(CDKN1A) mRNA levels in tumors [5] | p21(CDKN1A) protein levels in tumors [6] | apoptosis [7] | proliferation [7] | proliferation of normal fibroblasts [8] | viability of normal fibroblasts [8]
1 | COc1cc2c(cc1OC(C)C)[C@H](c1ccc(Cl)cc1)N(c1ccc(N(C)C[C@H]3CC[C@H](N4CCN(C)C(=O)C4)CC3)cc1)C(=O)C2 [MDM2i(1)] | hampering tumor cell proliferation in a p53-dependent manner | no significant increase | strong de novo expression | no significant increase | 50% | 3% | significant dose-dependent induction | significant dose-dependent induction |  |  |  | 
2 | COc1cc2c(cc1OC(C)C)[C@H](c1ccc(Cl)cc1)N(c1ccc(N(C)C[C@H]3CC[C@H](N4CCNC(=O)C4)CC3)cc1)C(=O)C2 [MDM2i(2)] | hampering tumor cell proliferation in a p53-dependent manner |  |  |  |  |  |  |  |  |  |  | 
3 | COc1ccc(C2=N[C@@H](c3ccc(Cl)cc3)[C@@H](c3ccc(Cl)cc3)N2C(=O)N2CCNC(=O)C2)c(OC(C)C)c1 [Nutlin-3] |  |  |  |  |  |  |  |  | increased apoptosis | reduced proliferation | proliferation of the cells was slowed | retained their viability
